From ChEMBL document CHEMBL4507268 (2021)

What was measured:
[1] = target: Atypical kinase COQ8A, mitochondrial (Homo sapiens) (UniProt Q8NI60); settings: Compound concentration 1000.0 nM
[2] = target: T1, Rhodopsin kinase GRK7 (Homo sapiens) (UniProt Q8WTQ7); settings: Compound concentration 1000.0 nM
T1 sequence (whole entry): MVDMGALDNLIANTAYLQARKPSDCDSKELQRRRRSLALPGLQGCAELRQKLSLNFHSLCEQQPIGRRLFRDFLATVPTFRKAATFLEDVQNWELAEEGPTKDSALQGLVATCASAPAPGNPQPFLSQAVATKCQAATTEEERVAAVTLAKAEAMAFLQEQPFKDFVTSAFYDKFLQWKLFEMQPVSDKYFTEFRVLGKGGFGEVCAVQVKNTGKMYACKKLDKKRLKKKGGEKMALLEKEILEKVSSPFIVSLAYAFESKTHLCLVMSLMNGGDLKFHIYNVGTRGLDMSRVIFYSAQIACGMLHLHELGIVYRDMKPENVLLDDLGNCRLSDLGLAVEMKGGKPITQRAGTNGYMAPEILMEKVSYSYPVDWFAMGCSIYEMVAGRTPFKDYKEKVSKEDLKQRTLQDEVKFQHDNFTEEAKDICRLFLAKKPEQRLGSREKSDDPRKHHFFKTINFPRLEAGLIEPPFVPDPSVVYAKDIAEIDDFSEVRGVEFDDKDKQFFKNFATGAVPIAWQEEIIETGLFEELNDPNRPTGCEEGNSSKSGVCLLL

[3] = tested on: Mast/stem cell growth factor receptor Kit (Homo sapiens), P10721 [L576P]; settings: Compound concentration 1000.0 nM
Chain of Mast/stem cell growth factor receptor Kit (Homo sapiens), P10721 [L576P] (P10721 whole entry L576P): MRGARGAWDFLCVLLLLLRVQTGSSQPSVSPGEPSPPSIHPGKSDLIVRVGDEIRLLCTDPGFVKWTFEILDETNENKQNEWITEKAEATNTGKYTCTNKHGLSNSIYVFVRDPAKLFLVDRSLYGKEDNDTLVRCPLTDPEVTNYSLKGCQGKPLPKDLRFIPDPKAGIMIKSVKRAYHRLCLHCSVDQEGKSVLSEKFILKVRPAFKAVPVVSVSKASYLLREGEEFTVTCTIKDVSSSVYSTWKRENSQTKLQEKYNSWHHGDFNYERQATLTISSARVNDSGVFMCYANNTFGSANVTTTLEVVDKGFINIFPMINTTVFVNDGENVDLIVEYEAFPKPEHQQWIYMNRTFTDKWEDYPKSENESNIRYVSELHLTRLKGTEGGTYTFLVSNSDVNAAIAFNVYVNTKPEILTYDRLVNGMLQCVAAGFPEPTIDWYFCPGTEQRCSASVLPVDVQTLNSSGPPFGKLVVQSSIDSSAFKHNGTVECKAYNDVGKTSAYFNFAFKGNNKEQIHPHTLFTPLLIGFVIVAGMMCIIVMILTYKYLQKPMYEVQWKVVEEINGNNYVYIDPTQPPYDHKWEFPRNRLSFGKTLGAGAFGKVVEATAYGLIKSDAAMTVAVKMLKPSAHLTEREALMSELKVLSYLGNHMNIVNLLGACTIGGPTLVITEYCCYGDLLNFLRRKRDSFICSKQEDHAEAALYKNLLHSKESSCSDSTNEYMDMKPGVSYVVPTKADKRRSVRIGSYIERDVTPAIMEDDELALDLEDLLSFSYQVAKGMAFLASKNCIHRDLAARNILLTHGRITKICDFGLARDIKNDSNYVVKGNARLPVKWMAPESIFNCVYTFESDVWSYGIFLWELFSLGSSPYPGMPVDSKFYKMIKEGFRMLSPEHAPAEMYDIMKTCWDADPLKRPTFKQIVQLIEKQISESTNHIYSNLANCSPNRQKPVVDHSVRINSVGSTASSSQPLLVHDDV

[4] = target: Myosin light chain kinase 2, skeletal/cardiac muscle (Homo sapiens) (UniProt Q9H1R3); settings: Compound concentration 1000.0 nM
Chain of Myosin light chain kinase 2, skeletal/cardiac muscle (Homo sapiens) (Q9H1R3 whole entry): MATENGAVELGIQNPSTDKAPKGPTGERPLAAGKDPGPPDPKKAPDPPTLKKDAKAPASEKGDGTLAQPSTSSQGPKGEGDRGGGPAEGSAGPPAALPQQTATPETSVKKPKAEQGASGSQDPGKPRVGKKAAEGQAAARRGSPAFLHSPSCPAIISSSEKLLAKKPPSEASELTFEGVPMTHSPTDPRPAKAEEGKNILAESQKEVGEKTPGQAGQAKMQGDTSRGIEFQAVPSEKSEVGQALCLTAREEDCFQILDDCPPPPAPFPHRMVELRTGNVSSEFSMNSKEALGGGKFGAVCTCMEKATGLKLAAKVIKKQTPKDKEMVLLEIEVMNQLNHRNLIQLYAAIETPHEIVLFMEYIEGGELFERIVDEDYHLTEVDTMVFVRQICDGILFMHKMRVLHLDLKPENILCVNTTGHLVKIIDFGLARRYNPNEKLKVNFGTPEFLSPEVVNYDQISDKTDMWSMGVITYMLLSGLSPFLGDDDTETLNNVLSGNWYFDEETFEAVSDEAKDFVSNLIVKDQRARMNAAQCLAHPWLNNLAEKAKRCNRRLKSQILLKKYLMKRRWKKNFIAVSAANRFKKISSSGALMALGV

[5] = target: Mu-type opioid receptor (Homo sapiens) (UniProt P35372); settings: Compound concentration 10.0 uM
Chain of Mu-type opioid receptor (Homo sapiens) (P35372 whole entry): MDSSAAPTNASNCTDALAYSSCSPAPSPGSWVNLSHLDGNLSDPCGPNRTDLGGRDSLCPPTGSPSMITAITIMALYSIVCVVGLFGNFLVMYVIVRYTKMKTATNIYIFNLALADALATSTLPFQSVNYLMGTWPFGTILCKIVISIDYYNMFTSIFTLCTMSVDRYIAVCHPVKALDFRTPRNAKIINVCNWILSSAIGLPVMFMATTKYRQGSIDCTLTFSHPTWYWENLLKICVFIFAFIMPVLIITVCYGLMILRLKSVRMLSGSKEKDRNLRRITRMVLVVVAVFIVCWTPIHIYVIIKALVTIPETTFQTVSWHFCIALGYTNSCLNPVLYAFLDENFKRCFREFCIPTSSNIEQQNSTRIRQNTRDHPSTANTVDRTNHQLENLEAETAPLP

[6] = tested on: Receptor-type tyrosine-protein kinase FLT3 (Homo sapiens), P36888 [D835H]; settings: Compound concentration 1000.0 nM
[7] = target: Misshapen-like kinase 1 (Homo sapiens) (UniProt Q8N4C8); settings: Compound concentration 1000.0 nM
Chain of Misshapen-like kinase 1 (Homo sapiens) (Q8N4C8 whole entry, looked up): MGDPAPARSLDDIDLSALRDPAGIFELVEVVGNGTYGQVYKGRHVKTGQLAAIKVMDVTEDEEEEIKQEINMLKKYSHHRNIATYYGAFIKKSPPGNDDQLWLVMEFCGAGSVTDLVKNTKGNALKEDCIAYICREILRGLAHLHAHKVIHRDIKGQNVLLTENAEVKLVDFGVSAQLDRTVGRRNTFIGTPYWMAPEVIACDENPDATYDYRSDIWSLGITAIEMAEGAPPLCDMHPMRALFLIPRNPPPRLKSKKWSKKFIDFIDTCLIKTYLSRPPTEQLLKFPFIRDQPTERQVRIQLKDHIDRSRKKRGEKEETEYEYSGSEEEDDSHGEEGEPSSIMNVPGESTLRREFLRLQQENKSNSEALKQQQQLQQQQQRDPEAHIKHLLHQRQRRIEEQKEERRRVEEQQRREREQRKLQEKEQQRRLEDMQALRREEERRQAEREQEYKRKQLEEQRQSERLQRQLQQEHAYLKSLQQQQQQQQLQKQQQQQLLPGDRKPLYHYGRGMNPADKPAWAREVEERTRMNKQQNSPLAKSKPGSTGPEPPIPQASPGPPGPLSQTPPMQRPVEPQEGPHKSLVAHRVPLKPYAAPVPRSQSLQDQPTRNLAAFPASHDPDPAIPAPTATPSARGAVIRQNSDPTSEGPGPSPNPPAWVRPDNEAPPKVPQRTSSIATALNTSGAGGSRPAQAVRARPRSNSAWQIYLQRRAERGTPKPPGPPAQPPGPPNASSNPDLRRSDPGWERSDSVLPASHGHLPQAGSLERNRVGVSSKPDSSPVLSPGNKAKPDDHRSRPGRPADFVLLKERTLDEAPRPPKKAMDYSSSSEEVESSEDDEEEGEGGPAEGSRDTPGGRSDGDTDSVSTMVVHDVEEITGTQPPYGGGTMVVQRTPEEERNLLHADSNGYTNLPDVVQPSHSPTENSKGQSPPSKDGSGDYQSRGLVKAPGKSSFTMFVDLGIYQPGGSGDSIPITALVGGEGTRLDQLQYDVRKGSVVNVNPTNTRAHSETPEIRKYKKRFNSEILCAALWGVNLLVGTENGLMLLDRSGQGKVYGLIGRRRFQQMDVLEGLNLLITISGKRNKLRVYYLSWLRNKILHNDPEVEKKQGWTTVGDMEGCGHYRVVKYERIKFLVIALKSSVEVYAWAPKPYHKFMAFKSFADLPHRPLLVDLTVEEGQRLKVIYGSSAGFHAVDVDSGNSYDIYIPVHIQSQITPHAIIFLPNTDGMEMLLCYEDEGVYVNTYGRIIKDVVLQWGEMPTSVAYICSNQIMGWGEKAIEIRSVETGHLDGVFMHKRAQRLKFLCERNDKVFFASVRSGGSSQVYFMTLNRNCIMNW

[8] = target: Mitogen-activated protein kinase kinase kinase 15 (Homo sapiens) (UniProt Q6ZN16); settings: Compound concentration 1000.0 nM
[9] = target: T2, Myosin-IIIb (Homo sapiens) (UniProt Q8WXR4); settings: Compound concentration 1000.0 nM
T2 sequence (whole entry): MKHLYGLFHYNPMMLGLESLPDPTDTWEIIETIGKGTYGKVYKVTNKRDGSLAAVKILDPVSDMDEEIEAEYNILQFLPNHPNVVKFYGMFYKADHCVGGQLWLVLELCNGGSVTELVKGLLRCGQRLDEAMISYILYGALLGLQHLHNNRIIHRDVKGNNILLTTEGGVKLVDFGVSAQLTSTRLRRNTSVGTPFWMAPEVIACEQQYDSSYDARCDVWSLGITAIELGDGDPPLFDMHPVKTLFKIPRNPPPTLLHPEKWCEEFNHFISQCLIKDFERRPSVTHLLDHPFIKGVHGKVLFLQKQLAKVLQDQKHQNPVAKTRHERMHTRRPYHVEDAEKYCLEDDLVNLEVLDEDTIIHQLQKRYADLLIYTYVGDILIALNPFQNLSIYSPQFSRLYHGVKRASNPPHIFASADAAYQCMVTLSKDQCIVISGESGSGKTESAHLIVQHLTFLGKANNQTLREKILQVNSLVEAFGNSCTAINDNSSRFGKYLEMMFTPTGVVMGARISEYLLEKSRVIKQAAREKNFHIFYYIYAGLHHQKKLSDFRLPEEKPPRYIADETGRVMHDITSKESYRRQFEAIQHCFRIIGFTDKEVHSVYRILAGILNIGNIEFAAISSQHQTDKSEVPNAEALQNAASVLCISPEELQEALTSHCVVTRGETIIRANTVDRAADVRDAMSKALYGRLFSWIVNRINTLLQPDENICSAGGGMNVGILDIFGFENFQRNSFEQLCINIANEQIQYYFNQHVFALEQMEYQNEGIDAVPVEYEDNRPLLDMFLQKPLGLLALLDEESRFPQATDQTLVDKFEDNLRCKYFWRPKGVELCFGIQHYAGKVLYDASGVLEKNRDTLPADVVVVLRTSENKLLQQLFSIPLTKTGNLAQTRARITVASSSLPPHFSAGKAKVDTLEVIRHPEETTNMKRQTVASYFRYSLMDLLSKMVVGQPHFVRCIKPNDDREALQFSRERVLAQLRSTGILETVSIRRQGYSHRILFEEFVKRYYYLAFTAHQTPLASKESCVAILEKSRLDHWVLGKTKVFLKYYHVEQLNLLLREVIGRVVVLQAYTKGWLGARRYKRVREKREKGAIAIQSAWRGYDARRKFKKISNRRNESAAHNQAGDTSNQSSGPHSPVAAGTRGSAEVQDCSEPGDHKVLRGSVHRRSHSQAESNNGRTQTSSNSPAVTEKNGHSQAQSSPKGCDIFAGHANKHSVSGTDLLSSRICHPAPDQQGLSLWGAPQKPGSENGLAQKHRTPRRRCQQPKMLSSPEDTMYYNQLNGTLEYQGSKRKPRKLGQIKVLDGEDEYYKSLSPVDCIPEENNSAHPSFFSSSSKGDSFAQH

[10] = target: Serine/threonine-protein kinase 16 (Homo sapiens) (UniProt O75716); settings: Compound concentration 1000.0 nM
Chain of Serine/threonine-protein kinase 16 (Homo sapiens) (O75716 whole entry): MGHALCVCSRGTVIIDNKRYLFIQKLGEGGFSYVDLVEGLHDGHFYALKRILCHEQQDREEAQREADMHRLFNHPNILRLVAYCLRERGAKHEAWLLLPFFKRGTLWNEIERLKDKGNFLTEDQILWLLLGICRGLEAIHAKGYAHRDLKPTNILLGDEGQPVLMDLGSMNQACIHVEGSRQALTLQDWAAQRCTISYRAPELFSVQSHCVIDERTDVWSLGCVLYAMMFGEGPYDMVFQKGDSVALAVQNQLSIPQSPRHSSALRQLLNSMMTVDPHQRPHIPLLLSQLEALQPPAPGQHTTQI

[11] = target: T3, TGF-beta receptor type-1 (Homo sapiens) (UniProt P36897); settings: Compound concentration 1000.0 nM
T3 sequence (whole entry): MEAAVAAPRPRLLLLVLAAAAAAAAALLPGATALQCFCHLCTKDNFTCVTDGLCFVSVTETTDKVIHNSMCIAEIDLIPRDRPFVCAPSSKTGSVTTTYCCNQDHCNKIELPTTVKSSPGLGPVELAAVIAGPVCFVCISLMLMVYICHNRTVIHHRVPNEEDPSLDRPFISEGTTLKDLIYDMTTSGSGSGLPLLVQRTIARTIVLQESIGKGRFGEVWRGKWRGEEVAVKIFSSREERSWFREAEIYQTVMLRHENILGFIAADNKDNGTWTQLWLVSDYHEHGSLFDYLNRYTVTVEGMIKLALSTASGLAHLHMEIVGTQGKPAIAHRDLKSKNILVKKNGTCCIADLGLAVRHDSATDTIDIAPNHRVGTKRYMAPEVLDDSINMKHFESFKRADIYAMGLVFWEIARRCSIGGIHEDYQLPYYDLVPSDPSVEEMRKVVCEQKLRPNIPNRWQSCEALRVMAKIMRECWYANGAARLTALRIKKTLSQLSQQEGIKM

[12] = target: Mitogen-activated protein kinase kinase kinase 14 (Homo sapiens) (UniProt Q99558); settings: Compound concentration 1000.0 nM
Chain of Mitogen-activated protein kinase kinase kinase 14 (Homo sapiens) (Q99558 whole entry, looked up): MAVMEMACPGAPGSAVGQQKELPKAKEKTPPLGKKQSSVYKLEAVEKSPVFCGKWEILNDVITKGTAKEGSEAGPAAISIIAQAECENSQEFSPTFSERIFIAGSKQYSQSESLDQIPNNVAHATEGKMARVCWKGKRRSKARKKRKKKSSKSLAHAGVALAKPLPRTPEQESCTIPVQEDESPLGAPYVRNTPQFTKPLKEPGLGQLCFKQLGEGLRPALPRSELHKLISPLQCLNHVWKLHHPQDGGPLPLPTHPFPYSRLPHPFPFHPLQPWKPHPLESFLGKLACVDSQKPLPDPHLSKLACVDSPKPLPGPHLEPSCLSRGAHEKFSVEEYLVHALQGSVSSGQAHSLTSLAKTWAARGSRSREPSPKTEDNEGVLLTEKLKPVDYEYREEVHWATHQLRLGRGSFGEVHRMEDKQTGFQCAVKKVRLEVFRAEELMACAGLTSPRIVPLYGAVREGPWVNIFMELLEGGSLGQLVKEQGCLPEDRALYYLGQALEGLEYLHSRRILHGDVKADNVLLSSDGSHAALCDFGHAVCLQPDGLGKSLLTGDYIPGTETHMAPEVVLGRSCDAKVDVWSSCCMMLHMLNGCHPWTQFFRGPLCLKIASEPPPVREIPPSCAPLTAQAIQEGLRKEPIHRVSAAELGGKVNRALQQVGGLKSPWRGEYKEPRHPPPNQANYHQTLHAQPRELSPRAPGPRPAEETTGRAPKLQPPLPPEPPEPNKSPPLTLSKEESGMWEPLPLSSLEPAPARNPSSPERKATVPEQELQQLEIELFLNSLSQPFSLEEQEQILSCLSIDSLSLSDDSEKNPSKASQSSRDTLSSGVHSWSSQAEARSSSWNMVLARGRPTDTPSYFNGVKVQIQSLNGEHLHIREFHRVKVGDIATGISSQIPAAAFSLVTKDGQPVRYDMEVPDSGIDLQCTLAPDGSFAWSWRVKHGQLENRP

Chain of Atypical kinase COQ8A, mitochondrial (Homo sapiens) (Q8NI60 163-647 limits assumed): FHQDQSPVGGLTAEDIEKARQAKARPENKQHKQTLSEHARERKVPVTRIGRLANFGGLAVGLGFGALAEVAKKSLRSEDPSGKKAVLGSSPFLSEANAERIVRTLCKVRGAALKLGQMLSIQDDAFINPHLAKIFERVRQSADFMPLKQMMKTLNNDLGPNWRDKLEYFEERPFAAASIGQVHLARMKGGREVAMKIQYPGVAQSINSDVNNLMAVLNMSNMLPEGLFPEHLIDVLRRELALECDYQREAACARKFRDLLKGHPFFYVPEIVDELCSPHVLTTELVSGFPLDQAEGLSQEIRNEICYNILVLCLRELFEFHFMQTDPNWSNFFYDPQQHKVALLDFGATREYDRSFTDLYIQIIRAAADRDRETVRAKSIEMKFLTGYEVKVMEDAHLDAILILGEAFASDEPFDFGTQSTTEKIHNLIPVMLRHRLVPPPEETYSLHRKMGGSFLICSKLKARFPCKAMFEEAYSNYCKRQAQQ

Cc1nc(C2CCN(C(=O)c3ccc(OC(F)(F)F)cc3N)CC2)c2ncc(N3CCN(C)CC3)cc2n1 [BAY-693]
inactive: residual activity [1] 100% | residual activity [2] 81% | residual activity [3] 87% | residual activity [4] 87% | inhibition [5] -1.66% | residual activity [6] 69% | residual activity [7] 93% | residual activity [8] 92% | residual activity [9] 71% | residual activity [10] 100% | residual activity [11] 80% | residual activity [12] 100%

CN1CCN(c2cnc3c(C4CCN(C(=O)c5ccc(OC(F)(F)F)cc5N)CC4)ncnc3c2)CC1 [BAY-885]
inactive: residual activity [1] 100% | residual activity [2] 87% | residual activity [3] 95% | residual activity [4] 85% | inhibition [5] 13.2% | residual activity [6] 75% | residual activity [7] 85% | residual activity [8] 95% | residual activity [9] 73% | residual activity [10] 100% | residual activity [11] 90% | residual activity [12] 100%
